Data on 14 molecules can be found in paper PMC12434308 (Nature chemical biology, 2021).

In test [1] the test system is ACE2+ HEK293 cells. Put plainly: fluorescent SARS-CoV-2 RBD trimer binding by flow cytometry. The format is cell-based. For orientation: A flow cytometer gives signals particle by particle.
Test [2] concerns ACE2+ HEK293 cells. The test is described as follows: SNA and PNA lectin staining by flow cytometry. The class given is cell-based. The note with it: 3 d treatment, 300 μM.
The test system of the next test is Vero-E6 cells. The class given is cell-based.
The subject of another test is control lentivirus. The class given is cell-based.
For test [3], the system named is SARS-CoV-2 pseudotyped lentivirus. The class given is cell-based.
For another test, the system named is ACE2. The test is described as follows: anti-ACE2 antibody staining by flow cytometry. The class given is cell-based, human. The note with it: ACE2+ HEK293 cells, 3FNeu5Ac treatment.
A further test deals with SARS-CoV-2 S1 protein. The note with it: model sialylated species; cited from earlier work.
Test [4] has as its target T1, SARS-CoV-2 RBD (Severe acute respiratory syndrome coronavirus 2, UniProt P0DTC2).
The target of another test is RBD. The note with it: read-out: Kd for the RBD; glycan immobilized, average MW 15,700 Da; cited from earlier work.
For test [5], the system named is ferret lung tissue sections.
Test [6] addresses T1, SARS-CoV-2 RBD. This is another data set of the same source.
Another test deals with SARS-CoV-2 S protein (Severe acute respiratory syndrome coronavirus 2, UniProt P0DTC2).

pKd: −log10 of the molar value.

Turning to `CC(=O)N[C@H]1[C@H]([C@H](O)[C@H](O)CO)O[C@](O)(C(=O)O)C(F)[C@@H]1O` (some centres unmarked) [3FNeu5Ac], the “RBD binding to treated cells” value in the test with ACE2+ HEK293 cells [1] (300 μM, 72 h) is given as “consistently decreased”. In addition, in the test on ACE2+ HEK293 cells [2], the “Sia on the cell surface (SNA and PNA staining)” value is reported as “substantially decreased”. Further, in the test with Vero-E6 cells, the “RBD binding to treated Vero-E6 cells” value is listed as “decrease in RBD binding”. For the same molecule, the “viral entry of control lentivirus” value with control lentivirus is reported as “no differences were observed”. Further, the “decrease in pseudotyped lentivirus infectivity” value in test [3] was 30–40%. For the same molecule, the “ACE2 levels after ST inhibition” value in the test with ACE2 is “did not alter”.
Consider `CC(=O)N[C@H]1[C@H]([C@H](O)[C@H](O)CO)O[C@@](O[C@H]2[C@@H](O)[C@@H](CO)O[C@@H](O[C@H]3[C@H](O)[C@@H](O)C(O)O[C@@H]3CO)[C@@H]2O)(C(=O)O)C[C@@H]1O` (some centres unmarked) [3′-sialyllactose], for which the Kd entry at SARS-CoV-2 S1 protein is on record as “millimolar”.
Turning to `CCCCCCCCC(=O)N[C@H](CN1CCCC1)[C@H](O)c1ccc2c(c1)OCCO2` [GENZ-123346], the “SARS-CoV-2 RBD binding to glycolipid-depleted cells” value in the test with ACE2+ HEK293 cells [1] (5 μM, 48 h) was “significant decreases”. Further, the “infection of control lentivirus” value in the test on control lentivirus is on record as “did not show differences”. In test [3], the “pseudotyped viral infection of glycolipid-depleted cells” value is “significant decreases” and the pseudoviral entry entry is “failed to elicit an effect”.
`COC1(C(=O)O)CC(O)C(NC(C)=O)C(C(O)C(O)CO)O1` (stereo not drawn) [MeαNeu5Ac, methyl α-sialoside]: the “relative abundance of released 69 on addition of competitor” value on SARS-CoV-2 RBD [4] is “qualitatively similar results as 41”.
As for “Galα(1-3)[Fucα(1-2)]Galβ(1-4)[Fucα(1-3)]Glc [glycan 87]”, the “ligand released from RBD in presence of excess MeαNeu5Ac” value on SARS-CoV-2 RBD [4] was “most abundant ligand released”.
Consider heparin, for which the pKd (as a rule, the negative decadic logarithm of the Kd, by convention in mol/L) at RBD was 6.00.
Regarding neuraminidase from Vibrio cholerae, the “decrease of SARS-CoV-2 RBD binding” value (in the test on Vero-E6 cells; in [5]) was about 80% throughout.
With “α-D-Neu5Ac-(2→3)-β-D-Gal-(1→3)-β-D-GalNAc-(1→4)-[α-D-Neu5Ac-(2→3)]-β-D-Gal-(1→4)-β-D-Glc-ceramide [GD1a]”, at SARS-CoV-2 RBD [6], the “ganglioside ions released from RBD complexes (nanodisc)” value was “no signals”.
On the same count and under the same terms, the same measure for “α-D-Neu5Ac-(2→3)-β-D-Gal-(1→4)-β-D-Glc-ceramide [GM3]”: “measured”.
For the molecule α-Gal-Lewis X [glycan 50], the “relative CaR-ESI-MS response of ligand released from S protein” value on SARS-CoV-2 S protein is given as “enhanced”.
For the molecule “α-Neu5Ac-(2→3)-β-D-Gal-(1→3)-β-D-GalNAc-(1→4)-[α-Neu5Ac-(2→8)-α-Neu5Ac-(2→3)]-β-D-Gal-(1→4)-β-D-Glc-ceramide [GT1b]”, the “ganglioside ions released from RBD complexes (nanodisc)” value at SARS-CoV-2 RBD [6] is “no signals”.
Same read-out and setting: the same measure for “β-D-Gal-(1→3)-β-D-GalNAc-(1→4)-[α-D-Neu5Ac-(2→3)]-β-D-Gal-(1→4)-β-D-Glc-ceramide [GM1]”: “measured”.
Still for that read-out and setting: the same measure for “β-D-GalNAc-(1→4)-[α-D-Neu5Ac-(2→3)]-β-D-Gal-(1→4)-β-D-Glc-ceramide [GM2]”: “measured”; for “β-D-GalNAc-(1→4)-[α-D-Neu5Ac-(2→8)-α-D-Neu5Ac-(2→3)]-β-D-Gal-(1→4)-β-D-Glc-ceramide [GD2]”: “no signals”.
